The compounds below were run against T1, integrin linked kinase (Homo sapiens, UniProt Q13418) (assay: In vitro kinase inhibition assay, integrin linked kinase (radioactive phosphate incorporation, scintillation counting)). Details: full-length recombinant ILK expressed in insect cells; substrate CKRRRLASLR-amide; 15 min at room temperature.
T1 construct: The target integrin linked kinase is a full-length recombinant protein expressed in sF9 insect cells by baculovirus infection; GST (N); made in house; host or cells: Baculovirus; virus made in Sf9 cells, litre-scale expression in Hi5 insect cells
T1 sequence (Q13418 1-452): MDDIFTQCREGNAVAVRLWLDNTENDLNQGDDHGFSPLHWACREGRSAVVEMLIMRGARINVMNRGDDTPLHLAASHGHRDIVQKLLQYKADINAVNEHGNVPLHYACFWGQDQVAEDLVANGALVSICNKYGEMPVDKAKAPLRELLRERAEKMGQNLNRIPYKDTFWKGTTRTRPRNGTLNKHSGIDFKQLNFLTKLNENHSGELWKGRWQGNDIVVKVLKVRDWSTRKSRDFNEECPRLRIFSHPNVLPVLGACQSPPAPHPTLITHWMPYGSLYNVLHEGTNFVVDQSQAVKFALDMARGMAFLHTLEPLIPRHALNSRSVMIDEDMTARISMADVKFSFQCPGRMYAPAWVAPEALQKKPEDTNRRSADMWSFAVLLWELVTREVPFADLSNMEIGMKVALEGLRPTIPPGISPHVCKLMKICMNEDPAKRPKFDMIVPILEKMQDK
Assay type: biochemical
Description: Compounds were screened using a series of disease related kinase targets, such as integrin linked kinase-1. Synthesized libraries of compounds are tested against each of the targets to find compounds that inhibit one of the targets preferentially. The desired in vitro potency of the inhibitor is such that the compound is useful as a therapeutic agent, i.e. in the nanomolar or micromolar range.
Inhibition of the targets is measured by scintillation counting; the incorporation of radioactive phosphate onto a specific substrate which is immobilized onto a filter paper at the end of the assay. To provide meaningful measurements of inhibition, the assays are performed both in the absence and presence of specific and known inhibitors, and the amount of incorporated radioactivity is compared to provide a baseline measurement.
The baseline activity is the amount of radioactivity incorporated in the absence of inhibitor. The amount of radioactivity incorporated in the presence of an inhibitor is called the ‘sample activity’, and the % inhibition is expressed by the following formula:
% inhibition=100−sample activity/baseline activity*100)
and is usually expressed in conjunction with the compound concentration. By using a range of inhibitor concentrations, the IC50 of an inhibitor is estimated (i.e. the concentration at which enzymatic activity is reduced by 50%).
Inhibition Assay: Compounds listed in Table 1 were lyophilized and stored at −20° C. Stock solutions were made by weighing out the compounds and dissolving them in dimethyl sulfoxide (DMSO) to a standard concentration, usually 20 mM, and stored at −20° C. The compounds were diluted to a starting intermediate concentration of 250 μM in 1% DMSO, then serially diluted across a row of a 96 well plate using serial 2 fold dilution steps. Diluted 100% DMSO was used as a negative control. 5 μl of each compound dilution were robotically pipetted to Costar serocluster plates maintaining the same plate format. All assays consisted of the following volumes:
and were then incubated 15 min at room temperature.
From each reaction, 10 μl of reaction mix was spotted onto Millipore Multiscreen-PH opaque plates and washed 2×10 min in 1% phosphoric acid. The plates were dried for at 40° C. for 30 min, then the substrate phosphate complexes were quantitated by scintillation counting. These Millipore plates are in a 96 well format with immobilized P81 phosphocellulose membranes. Both the phosphorylated and non-phosphorylated form of the substrate bind to the membrane while ATP (unincorporated phosphate) is removed in the subsequent wash steps.
Integrin Linked Kinase: The target integrin linked kinase is a full-length recombinant protein expressed in sF9 insect cells by baculovirus infection. The ILK1 substrate is CKRRRLASLR-amide.
Recombinant ILK protein was expressed using cultured insect cells and a baculovirus expression system. Standard techniques for DNA manipulation were used to produce recombinant DNA molecules and baculoviruses (Sambrook. J., Fritsch, E. F. and Maniatis, T. 1989. Molecular cloning, a laboratory manual. Second edition. Cold Spring Harbor Laboratory Press. NY; Crossen, R. and Gruenwald, S. 1998. Baculovirus expression Vector System Manual. 5th Edition. Pharmingen, San Diego, Calif.) but the isolation of active ILK required some ingenuity.
The ILK open reading frame (Hannigan et al., supra.), excluding the 5′ and 3′ untranslated regions, was inserted into the baculovirus transfer vector pAcG2T (Pharmingen) to produce a GST fusion protein under the control of the strong AcNPV polyhedrin promoter. A large scale plasmid preparation of the resulting transfer construct was made using a Qiagen Plasmid Midi Kit. This ILK transfer construct was then co-transfected with BaculoGold DNA (Pharmingen) into Sf9 insect cells (Invitrogen) and a high titre preparation of GST-ILK recombinant baculovirus was produced by amplification in Sf9 cells. […]

| Compound | IC50 |
| --- | --- |
| NC1=NN=C(N)C1=NNc1ccc(S(=O)(=O)O)c2ccccc12 [KP-27295, 4-[N′-(3,5-Diaminopyrazol-4-ylidene)hydrazino]naphthalene-1-sulfonic acid] | 19.3 µM |
| NC1=NN=C(N)C1=NNc1nccnn1 [KP-27387, 3,5-diamino-4-(3-[1,2,4]triazinyl)hydrazonopyrazole] | > 20 µM |
| COc1ccc(/N=N/C2C(=O)NN=C2N)cc1 (stereo not shown) [KP-23200, 3-amino-4-(p-methoxyphenylazo)-2-pyrazolin-5-one] | > 20 µM |
| Cc1ccc(/N=N/C2C(=O)NN=C2N)cc1 (stereo not shown) [KP-23199, 3-amino-4-(p-methylphenylazo)-2-pyrazolin-5-one] | > 20 µM |
| CC(=O)Nc1ccc(NN=C2C(N)=NN=C2N)cc1 [KP-27392, 3,5-diamino-4-(p-acetoaminophenyl)hydrazonopyrazole] | 5 µM |
| Cc1ccc(NN=C2C(N)=NN=C2N)cc1 [KP-23195, 3,5-diamino-4-(p-methylphenyl)hydrazonopyrazole] | 5.3 µM |
| N=C1NN=C(N)/C1=N/Nc1ccccc1 [KP-23194, 3,5-diamino-4-phenylhydrazonopyrazole] | 0.6 µM |
| O=C1NNC(=O)C1=NNc1ccccc1 [KP-23202, 4-phenylhydrazonopyrazolin-3,5-dione] | > 20 µM |
| COc1ccc(/N=N/C2C(=O)NN=C2N)cc1O (stereo not shown) [KP-23201, 3-amino-4-(3-hydroxy-4-methyoxyphenylazo)-2-pyrazolin-5-one] | 18 µM |
| NC1=NN=C(N)C1=NNc1ccc(C(=O)O)cc1 [KP-27388, 4-[N′-(3,5-diaminopyrazol-4-ylidene)hydrazino]benzoic acid] | 13 µM |
| COc1ccc(N/N=C2/C(=N)NN=C2N)cc1 [KP-15792, 3,5-diamino-4-(p-methoxyphenyl)hydrazonopyrazole] | 1 µM |
| NC1=NN=C(N)C1=NNc1ccc(Cl)cc1 [KP-27390, 3,5-diamino-4-(p-chlorophenyl)hydrazonopyrazole] | 1.2 µM |
| NC1=NN=C(N)C1=NNc1ccc(O)cc1 [KP-27389, 3,5-diamino-4-(p-hydroxyphenyl)hydrazonopyrazole] | > 20 µM |
| NC1=NN=C(N)C1=NNc1c(O)ccc2ccccc12 [KP-27393, 3,5-diamino-4-(2-hydroxynaphthyl)hydrazonopyrazole] | 3 µM |
| NC1=NN=C(N)C1=NNCCN1CCOCC1 [KP-27290, 3,5-diamino-4-(2-morpholinylethyl)hydrazonopyrazole] | 8.2 µM |
| NC1=NN=C(N)C1=NNc1ccc(S(=O)(=O)O)cc1 [KP-27288, 4-[N′-(3,5-diaminopyrazole-4-ylidene)hydrazino]benzenesulfonic acid] | > 20 µM |
| NC1=NN=C(N)C1=NNc1nccs1 [KP-27293, 3,5-diamino-4-(2-thiazolyl)hydrazonopyrazole] | 0.9 µM |
| COc1ccc(NN=C2C(=O)NNC2=O)cc1 [KP-23204, 4-(p-methoxyphenyl)hydrazonopyrazolin-3,5-dione] | > 20 µM |

Further lines, results first:

| IC50 | Compound |
| --- | --- |
| 28 µM | NC1=NN=C(N)C1=NNc1ncc[nH]1 [KP-27291, 3,5-diamino-4-(2-imidazolyl)hydrazonopyrazole] |
| > 20 µM | COc1ccc(NN=C2C(=O)NNC2=O)cc1O [KP-23205, 4-(3-hydroxy-4-methyoxyphenyl)hydrazonopyrazolin-3,5-dione] |
| 0.6 µM | NC1=NN=C(N)C1=NNc1cccc2ccccc12 [KP-27294, 3,5-diamino-4-(1-naphthyl)hydrazonopyrazole] |
| 17.1 µM | NC1=NNC(=O)C1/N=N/c1ccccc1 (stereo not shown) [KP-23198, 3-amino-4-phenylazo-2-pyrazolin-5-one] |
| 8 µM | NC1=NN=C(N)C1=NNc1cc[nH]n1 [KP-27292, 3,5-diamino-4-(3-pyrazolyl)hydrazonopyrazole] |
| > 20 µM | Cc1ccc(NN=C2C(=O)NNC2=O)cc1 [KP-23203, 4-(p-methylphenyl)hydrazonopyrazolin-3,5-dione] |
| 9.6 µM | NC1=NN=C(N)C1=NNN1CCOCC1 [KP-27289, 3,5-diamino-4-morpholinylhydrazonopyrazole] |
| 4 µM | COc1ccc(NN=C2C(N)=NN=C2N)cc1O [KP-23197, 3,5-diamino-4-(3-hydroxy-4-methoxyphenyl)hydrazonopyrazole] |
| 13 µM | NC1=NN=C(N)C1=NNCC1CCNCC1 [KP-27386, 3,5-diamino-4-(4-piperidinylmethyl)hydrazonopyrazole] |

Each compound was assayed on Lewis Lung Carcinoma cells (assay: Anti-tumor activity in a murine model using Lewis Lung Carcinoma cells (FIG. 1)). Details: FIG. 1 legend only.
Assay type: in vivo

| Compound | anti-tumor activity |
| --- | --- |
| COc1ccc(N/N=C2/C(=N)NN=C2N)cc1 [KP-15792, 3,5-diamino-4-(p-methoxyphenyl)hydrazonopyrazole] | anti-tumor activity |

Source: patent US6436915B1, “Pyrazole compounds” (Kinetek Pharmaceuticals, Inc., priority 2000, dated 2002)
